Measurements reported in patent EP1096933B1, “USE OF AN INHIBITOR OF CYTOCHROME P450 OPTIONALLY COMBINED WITH AN ANTIFUNGAL AGENT FOR TREATING MYCOSES” (priority 1998, dated 2000).
Read-outs that look alike come from different tables or passages of the source.

Key:
Assay in all cases: growth of strains streaked on Sabouraud agar containing the products
Format in all cases: cell-based
Trichophyton soudanense = conditions: Tric.Soudanese, read-out: % DE CROISSANCE
Protocol: (§1) Ces molécules ont été incorporées dans un milieu gélosé dit de Sabouraud (peptone 10g/l, glucose 10 g/l, gomme agar 15 g/l).
(§2) Des souches de diverses espèces de champignons ont été ensemencées par stries par la méthode de Stires.
(§3) Le pourcentage de croissance a été mesuré au cours du temps, pour des périodes allant jusqu'à 21 jours, pour certaines des souches testées.
(§4) Les quantités de pipéronyl butoxyde, et de cyclopyroxolamine utilisées sont identiques et sont de 10 ou 20 µg/ml dans le cas de l'association entre ces deux composés.
(§5) Dans le cas de l'association entre le pipéronyl butoxyde et l'éconazole, elles sont respectivement de 10 ou 20 µg/ml de pipéronyl butoxyde et de 1 µg/ml d'éconazole.
(§6) Des souches appartenant aux espèces suivantes ont été testées: Microsporum canis, Trichophyton rubrum, Trichophyton interdigitale, Trichophyton mentagrophytes, Microsporum persicolor, Epidermophyton floccosum, Trichophyton violaceum et Trichophyton soudanense.
(§7) L'activité du pipéronyl butoxyde seul a été testée à diverses concentrations, comme indiqué dans le tableau 1 sur le milieu de Sabouraud, dépourvu de tout autre fongicide.

Trichophyton rubrum = conditions: Tric.Rubrum, read-out: % DE CROISSANCE
Protocol: as §1, §2, §3, §4, §5, §6, §7

[1] = test system: Trichophyton interdigitale; conditions: Tric.Interdigitale, read-out: % DE CROISSANCE
Protocol: as §1, §2, §3, §4, §5, §6, §7

Epidermophyton floccosum = conditions: Epid.Flocosum, read-out: % DE CROISSANCE
Protocol: as §1, §2, §3, §4, §5, §6, §7

Microsporum canis = conditions: Micro. Canis, read-out: % DE CROISSANCE
Protocol: as §1, §2, §3, §4, §5, §6, §7

Microsporum persicolor = conditions: Nannizzia persicolor, Micro.Persicolor, Econazole 1µg/ml, read-out: % DE CROISSANCE
Protocol: as §1, §2, §3, §4, §5, §6, §7

[2] = test system: Trichophyton mentagrophytes; conditions: Tric.Mentagophytes, read-out: % DE CROISSANCE
Protocol: as §1, §2, §3, §4, §5, §6, §7

Trichophyton violaceum = conditions: Tric.Violaceum, read-out: % DE CROISSANCE
Protocol: as §1, §2, §3, §4, §5, §6, §7

## Clc1ccc(COC(Cn2ccnc2)c2ccc(Cl)cc2Cl)cc1 (stereo not shown) [Econazole, éconazole]
Trichophyton soudanense; 0 h, J0, Econazole 1µg/ml
  activity at 1 µg/mL: 0%
Trichophyton soudanense; 96 h, J4, Econazole 1µg/ml
  activity at 1 µg/mL: 0%
Trichophyton soudanense; 144 h, J6, Econazole 1µg/ml
  activity at 1 µg/mL: 0%
Trichophyton soudanense; 240 h, J10, Econazole 1µg/ml
  activity at 1 µg/mL: 30%
Trichophyton soudanense; 336 h, J14, Econazole 1µg/ml
  activity at 1 µg/mL: 60%
Trichophyton rubrum; 0 h, J0, Econazole 1µg/ml
  activity at 1 µg/mL: 0%
Trichophyton rubrum; 96 h, J4, Econazole 1µg/ml
  activity at 1 µg/mL: 0%
Trichophyton rubrum; 144 h, J6, Econazole 1µg/ml
  activity at 1 µg/mL: 20%
Trichophyton rubrum; 240 h, J10, Econazole 1µg/ml
  activity at 1 µg/mL: 60%
Trichophyton rubrum; 336 h, J14, Econazole 1µg/ml
  activity at 1 µg/mL: 70%
[1]; 0 h, J0, Econazole 1µg/ml
  activity at 1 µg/mL: 0%
[1]; 96 h, J4, Econazole 1µg/ml
  activity at 1 µg/mL: 5%
[1]; 144 h, J6, Econazole 1µg/ml
  activity at 1 µg/mL: 5%
[1]; 240 h, J10, Econazole 1µg/ml
  activity at 1 µg/mL: 40%
[1]; 336 h, J14, Econazole 1µg/ml
  activity at 1 µg/mL: 60%
Epidermophyton floccosum; 0 h, J0, Econazole 1µg/ml
  activity at 1 µg/mL: 0%
Epidermophyton floccosum; 96 h, J4, Econazole 1µg/ml
  activity at 1 µg/mL: 0%
Epidermophyton floccosum; 144 h, J6, Econazole 1µg/ml
  activity at 1 µg/mL: 0%
Epidermophyton floccosum; 240 h, J10, Econazole 1µg/ml
  activity at 1 µg/mL: 5%
Epidermophyton floccosum; 336 h, J14, Econazole 1µg/ml
  activity at 1 µg/mL: 10%
Microsporum canis; 0 h, J0, Econazole 1µg/ml
  activity at 1 µg/mL: 0%
Microsporum canis; 96 h, J4, Econazole 1µg/ml
  activity at 1 µg/mL: 0%
Microsporum canis; 144 h, J6, Econazole 1µg/ml
  activity at 1 µg/mL: 10%
Microsporum canis; 240 h, J10, Econazole 1µg/ml
  activity at 1 µg/mL: 40%
Microsporum canis; 336 h, J14, Econazole 1µg/ml
  activity at 1 µg/mL: 80%
Microsporum persicolor; 0 h, J0
  activity at 1 µg/mL: 0%
Microsporum persicolor; 96 h, J4
  activity at 1 µg/mL: 0%
Microsporum persicolor; 144 h, J6
  activity at 1 µg/mL: 0%
Microsporum persicolor; 240 h, J10
  activity at 1 µg/mL: 15%
Microsporum persicolor; 336 h, J14
  activity at 1 µg/mL: 50%
[2]; 0 h, J0, Econazole 1µg/ml
  activity at 1 µg/mL: 0%
[2]; 96 h, J4, Econazole 1µg/ml
  activity at 1 µg/mL: 5%
[2]; 144 h, J6, Econazole 1µg/ml
  activity at 1 µg/mL: 10%
[2]; 240 h, J10, Econazole 1µg/ml
  activity at 1 µg/mL: 30%
[2]; 336 h, J14, Econazole 1µg/ml
  activity at 1 µg/mL: 40%
Trichophyton violaceum; 0 h, J0, Econazole 1µg/ml
  activity at 1 µg/mL: 0%
Trichophyton violaceum; 96 h, J4, Econazole 1µg/ml
  activity at 1 µg/mL: 0%
Trichophyton violaceum; 144 h, J6, Econazole 1µg/ml
  activity at 1 µg/mL: 40%
Trichophyton violaceum; 240 h, J10, Econazole 1µg/ml
  activity at 1 µg/mL: 60%
Trichophyton violaceum; 336 h, J14, Econazole 1µg/ml
  activity at 1 µg/mL: 100%
